Molecules are shown by their SMILES. Structures can show the parent of a compound that is named as a salt.

Drawing on patent publication US10428045B2, “Benzazepine compounds, conjugates, and uses thereof” (Silverback Therapeutics, Inc., priority 2017, dated 2019), this text covers EC50 for 14 molecules.

Holding throughout (format): cell-based
The target in one assay is T1, hTLR8 (Homo sapiens, UniProt Q9NR97).
T1 construct: host or cells: HEK-Blue hTLR8 (HEK293-derived reporter cell line)
T1 sequence (Q9NR97 27-1041): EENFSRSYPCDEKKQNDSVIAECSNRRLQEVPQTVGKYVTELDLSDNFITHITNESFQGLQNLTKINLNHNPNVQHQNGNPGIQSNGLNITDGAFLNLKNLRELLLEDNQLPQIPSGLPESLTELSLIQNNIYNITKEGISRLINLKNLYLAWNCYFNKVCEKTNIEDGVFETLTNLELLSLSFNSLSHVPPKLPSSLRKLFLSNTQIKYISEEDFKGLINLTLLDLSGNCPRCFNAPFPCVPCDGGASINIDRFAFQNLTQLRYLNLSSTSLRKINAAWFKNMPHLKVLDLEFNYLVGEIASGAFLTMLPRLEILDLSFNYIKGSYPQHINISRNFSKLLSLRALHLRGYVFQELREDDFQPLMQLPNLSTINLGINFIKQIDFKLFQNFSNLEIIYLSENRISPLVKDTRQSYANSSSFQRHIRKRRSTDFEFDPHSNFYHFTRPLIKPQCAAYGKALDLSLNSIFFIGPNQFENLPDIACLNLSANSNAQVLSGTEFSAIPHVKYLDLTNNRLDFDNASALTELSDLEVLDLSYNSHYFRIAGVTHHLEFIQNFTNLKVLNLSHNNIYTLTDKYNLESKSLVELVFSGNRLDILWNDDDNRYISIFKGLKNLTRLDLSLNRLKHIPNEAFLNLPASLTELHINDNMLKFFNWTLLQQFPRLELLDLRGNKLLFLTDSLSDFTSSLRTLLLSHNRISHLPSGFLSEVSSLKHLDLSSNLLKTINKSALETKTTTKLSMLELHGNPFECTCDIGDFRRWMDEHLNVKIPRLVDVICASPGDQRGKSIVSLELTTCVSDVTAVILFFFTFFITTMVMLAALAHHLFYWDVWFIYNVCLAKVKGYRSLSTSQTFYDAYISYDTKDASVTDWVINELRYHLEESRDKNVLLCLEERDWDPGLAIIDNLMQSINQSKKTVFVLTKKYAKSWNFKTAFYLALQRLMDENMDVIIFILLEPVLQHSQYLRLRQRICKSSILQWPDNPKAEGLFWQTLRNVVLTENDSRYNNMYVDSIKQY
Briefly: TLR7/TLR8 reporter assay, HEK-Blue hTLR8 reporter cells. The settings on record: 17 hours, optical density at 640 nm. As to the method: (§1) Reporter cells lines (namely HEK-Blue Null1, HEK-Blue hTLR7 and HEK-Blue hTLR8) are obtained from InvivoGen. Cells are passed/expanded/stored in liquid nitrogen per supplier's instruction. The cells are typically split twice per week in the growth media of DMEM supplemented with 10% fetal bovine serum, 1× NEAA, 1 mM Pyruvate, 2 mM glutamine, 50 μg/mL penicillin, 50 U/mL streptomycin (each from Gibco) in the presence of the following antibiotics, as shown in Table 3:
(§2) Test samples (at desired concentrations diluted in DMEM) are added to the 96-well assay plate, 20 μL per well. Reporter cells are harvested from the tissue culture flasks by incubation in PBS at 37° C. for two minutes after the media in the flask is removed and cells rinsed with PBS. Cells are counted and diluted in the HEK-Blue Detection media at 0.22×10^6 cells/mL. Then 180 μL of cells are added to the assay plate containing the 20 μL of test samples, and incubated for 17 hours at 37° C. in a 5% CO2 humidified incubator. Optical density at 640 nm is analyzed using an Envision (Perkin Elmer) plate reader.
(In a reporter assay the amount or activity of a reporter protein is the signal.)

The next assay addresses T2, hTLR7 (Homo sapiens, UniProt Q9NYK1).
T2 construct: host or cells: HEK-Blue hTLR7 (HEK293-derived reporter cell line)
T2 sequence (Q9NYK1 27-1049): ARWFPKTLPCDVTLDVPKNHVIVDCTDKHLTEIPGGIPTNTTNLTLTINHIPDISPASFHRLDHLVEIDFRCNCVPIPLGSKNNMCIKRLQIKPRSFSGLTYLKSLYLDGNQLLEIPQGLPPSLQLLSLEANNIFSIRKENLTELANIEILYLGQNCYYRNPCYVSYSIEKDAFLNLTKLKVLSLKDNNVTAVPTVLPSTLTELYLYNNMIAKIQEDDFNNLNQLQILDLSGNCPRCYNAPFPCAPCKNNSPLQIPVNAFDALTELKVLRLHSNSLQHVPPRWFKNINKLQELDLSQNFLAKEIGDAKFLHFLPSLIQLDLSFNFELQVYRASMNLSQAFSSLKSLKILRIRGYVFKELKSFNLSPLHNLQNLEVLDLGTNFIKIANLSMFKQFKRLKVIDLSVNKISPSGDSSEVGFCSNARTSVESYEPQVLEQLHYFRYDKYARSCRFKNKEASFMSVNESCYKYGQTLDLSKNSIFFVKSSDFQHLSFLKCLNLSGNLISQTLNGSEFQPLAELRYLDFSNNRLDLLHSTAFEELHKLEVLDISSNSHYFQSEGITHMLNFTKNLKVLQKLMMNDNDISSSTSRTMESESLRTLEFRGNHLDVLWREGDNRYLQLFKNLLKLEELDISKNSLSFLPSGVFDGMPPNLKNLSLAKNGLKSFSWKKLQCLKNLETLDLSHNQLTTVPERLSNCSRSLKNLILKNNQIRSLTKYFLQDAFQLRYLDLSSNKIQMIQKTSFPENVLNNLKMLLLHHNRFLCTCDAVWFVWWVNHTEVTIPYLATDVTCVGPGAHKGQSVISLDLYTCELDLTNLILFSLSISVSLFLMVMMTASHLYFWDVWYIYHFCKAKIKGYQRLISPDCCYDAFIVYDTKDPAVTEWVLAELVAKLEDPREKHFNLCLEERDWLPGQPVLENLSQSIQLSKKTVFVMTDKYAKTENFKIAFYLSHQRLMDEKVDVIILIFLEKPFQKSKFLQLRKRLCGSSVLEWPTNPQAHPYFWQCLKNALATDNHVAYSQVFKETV
The assay is described as follows: TLR7/TLR8 reporter assay, HEK-Blue hTLR7 reporter cells. The conditions noted are these: 17 hours, optical density at 640 nm. As to the method:
as §1, §2

Assay [1] has as its system Human peripheral blood mononuclear cells (PBMC). Briefly: PBMC screening assay, TNF-α in supernatant. The conditions noted are these: TNF-α in supernatant of human PBMC, 24 hours, ELISA or HTRF. On the procedure:
Human peripheral blood mononuclear cells (PBMC) were obtained from BenTek, frozen at 25×10^6 cell/mL in 10% DMSO (Sigma) prepared in fetal bovine serum (Gibco) and stored in liquid nitrogen. For culture PBMC were thawed quickly in a 37° C. water bath and diluted into pre-warmed RPMI 1640 (Lonza) supplemented with 10% fetal bovine serum, 2 mM glutamine, 50 μg/mL penicillin, 50 U/mL streptomycin (all from Gibco) and centrifuged for 5 minutes at 500×g. PBMC were suspended into the growth media described above and cultured at a concentration of 1×10^6 cells per mL at 37° C. in a 5% CO2 incubator.
PBMC were thawed, suspended at a concentration of 1×10^6 cell/mL in growth media and 200 μL was aliquoted into each well of a 96-well plate for a total of 0.2×10^6 cells per well. PBMC were incubated for 16-18 hours at 37° C. in a 5% CO2 humidified incubator. The following day PBMC plates were centrifuged at 500×g for 5 minutes and the growth media was removed. 150 μL of twelve concentrations ranging from 1000 to 0.000238 nM of small molecules prepared in growth media were added to PBMC in duplicate and incubated for 24 hours at 37° C. in a 5% CO2 incubator. Prior to supernatant harvest, cells were spun at 500×g for 5 minutes to remove cell debris. TNF-α activity was assessed in the supernatant by ELISA (eBioscience) or HTRF (CisBio) per the manufacturer's instructions. Optical density at 450 nm and 570 nm (ELISA) or luminescence (HTRF) was analyzed using an Envision (Perkin Elmer) plate reader, as shown in Table 5.
In general terms: In an ELISA, binding on a coated surface is turned into a signal by an enzyme label.

As usually defined, the EC50 is the concentration that produces a half-maximal response. A lower EC50 goes with greater potency. As for `CCCN(CCC)C(=O)C1=Cc2ccc(C(=O)Nc3cncc(CNC(=O)[C@H](Cc4ccccc4)NC(=O)OCc4ccccc4)c3)cc2N=C(N)C1` [Compound 1.16, benzyl (S)-(1-(((5-(2-amino-4-(dipropyl-carbamoyl)-3H-benzo[b]azepine-8-carboxamido)pyridin-3-yl)methyl)amino)-1-oxo-3-phenylpropan-2-yl)carbamate], the concentration for a half-maximal effect (EC50) was 0.5 to 1 µM at hTLR8 and over 1 µM on hTLR7.
Taken in the same sequence, the figures for `CCCN(CCC)C(=O)C1=Cc2ccc(C(=O)Nc3cncc(CNC(=O)[C@@H](NC(=O)OCc4ccccc4)C(C)C)c3)cc2N=C(N)C1` [Compound 1.15, benzyl (S)-(1-(((5-(2-amino-4-(dipropyl-carbamoyl)-3H-benzo[b]azepine-8-carboxamido)pyridin-3-yl)methyl)amino)-3-methyl-1-oxobutan-2-yl)carbamate] were under 0.5 µM and over 1 µM.
Taken in the same sequence, the figures for `CCCN(CCC)C(=O)C1=Cc2ccc(C(=O)Nc3cccc([C@H]4CN(Cc5ccccc5)C[C@@H]4C(=O)OC)c3)cc2N=C(N)C1` [Compound 1.18, methyl (3R,4S)-4-(3-(2-amino-4-(dipropylcarbamoyl)-3H-benzo[b]azepine-8-carboxamido)phenyl)-1-benzylpyrrolidine-3-carboxylate trifluoroacetate salt] were over 1 µM and over 1 µM.
On the same counts, the results for `CCCN(CCC)C(=O)C1=Cc2ccc(C(=O)Nc3cncc(CNC(=O)[C@@H]4CCCN4C(=O)OCc4ccccc4)c3)cc2N=C(N)C1` [Compound 1.17, benzyl (S)-2-(((5-(2-amino-4-(dipropyl-carbamoyl)-3H-benzo[b]azepine-8-carboxamido)pyridin-3-yl)methyl)carbamoyl)pyrrolidine-1-carboxylate] are under 0.5 µM and over 1 µM.
`CCCN(CCC)C(=O)C1=Cc2ccc(C(=O)Nc3ccc(C(C)=O)cc3)cc2N=C(N)C1` [Compound 1.25, N^8-(4-acetylphenyl)-2-amino-N^4,N^4-dipropyl-3H-benzo[b]azepine-4,8-dicarboxamide trifluoroacetate salt] gave an EC50 in assay [1] of under 0.5 µM.
Same read-out and setting: next, `CCCN(CCC)C(=O)C1=Cc2ccc(C(=O)Nc3cnc4c(c3)CNCC4)cc2N=C(N)C1` [Compound 1.50, 2-amino-N^4,N^4-dipropyl-N^8-(5,6,7,8-tetrahydro-1,6-naphthyridin-3-yl)-3H-benzo[b]azepine-4,8-dicarboxamide]: under 0.5 µM; `CCCN(CCC)C(=O)C1=Cc2ccc(C(=O)Nc3ccc4c(c3)CCNC4)cc2N=C(N)C1` [Compound 1.13, 2-amino-N^4,N^4-dipropyl-N^8-(1,2,3,4-tetrahydroisoquinolin-6-yl)-3H-benzo[b]azepine-4,8-dicarboxamide trifluoroacetate salt]: under 0.5 µM; `CCCN(CCC)C(=O)C1=Cc2ccc(C(=O)NCCNC(=O)OCc3ccccc3)cc2N=C(N)C1` [Compound 1.26, benzyl (2-(2-amino-4-(dipropylcarbamoyl)-3H-benzo[b]azepine-8-carboxamido)ethyl)carbamate trifluoroacetate salt]: under 0.5 µM.
On the same count and under the same terms, as for `CCCN(CCC)C(=O)C1=Cc2ccc(C(=O)N[C@H](C)c3ccccc3)cc2N=C(N)C1` [Compound 1.22, (R)-2-amino-N^8-(1-phenylethyl)-N^4,N^4-dipropyl-3H-benzo[b]azepine-4,8-dicarboxamide trifluoroacetate salt], the figure is under 0.5 µM.
As for `CCCN(CCC)C(=O)C1=Cc2ccc(C(=O)Nc3cncc(CNC(=O)Oc4ccccc4)c3)cc2N=C(N)C1` [Compound 1.37, Phenyl ((5-(2-amino-4-(dipropylcarbamoyl)-3H-benzo[b]azepine-8-carboxamido)pyridin-3-yl)methyl)carbamate], the half-maximal effective concentration (EC50) in assay [1] was under 0.5 µM.
The same measure, in the same setting: next, `CCCN(CCC)C(=O)C1=Cc2ccc(C(=O)NCc3cccnc3)cc2N=C(N)C1` [Compound 1.3, 2-amino-N^4,N^4-dipropyl-N^8-(pyridin-3-ylmethyl)-3H-benzo[b]azepine-4,8-dicarboxamide HCl salt]: under 0.5 µM; `CCCN(CCC)C(=O)C1=Cc2ccc(C(=O)Nc3ccc4c(c3)NCCC4)cc2N=C(N)C1` [Compound 1.1, 2-amino-N^4,N^4-dipropyl-N^8-(1,2,3,4-tetrahydroquinolin-7-yl)-3H-benzo[b]azepine-4,8-dicarboxamide]: under 0.5 µM.
In assay [1], `CCCN(CCC)C(=O)C1=Cc2ccc(S(=O)(=O)Nc3cccnc3)cc2N=C(N)C1` [Compound 1.63, 2-amino-N,N-dipropyl-8-(N-(pyridin-3-yl)sulfamoyl)-3H-benzo[b]azepine-4-carboxamide] gave a concentration for a half-maximal effect (EC50) of 0.5 to 1 µM.
Still for that read-out and setting: as for `CCCN(CCC)C(=O)C1=Cc2ccc(C(=O)Nc3ccc4c(c3)CCCC4=O)cc2N=C(N)C1` [Compound 1.5, 2-amino-N^8-(5-oxo-5,6,7,8-tetrahydronaphthalen-2-yl)-N^4,N^4-dipropyl-3H-benzo[b]azepine-4,8-dicarboxamide trifluoroacetate salt], the figure is under 0.5 µM.
